Data published in paper PMC4242080, “NMR structure of the water soluble Aβ17–34 peptide” (Bioscience Reports, 2014).

Assay: Peptide solubility in aqueous buffers and water
Protocol: These peptides contained two glutamate or arginine residues at the N- and C-termini for increased solubility. The full amino acid sequence of the purchased Aβ was […] (Peptide 2.0 Inc. Company) and […] (Sigma-Aldrich). The peptide mass was verified using MALDI-TOF mass spectroscopy. To dissolve the peptides, phosphate and acetate aqueous buffers were prepared. None of the buffers contained hydrophobic solvents known to solubilize and stabilize α-helices (i.e. TFE or HFPI) or surfactants known to dissolve hydrophobic peptides (i.e. SDS). Henceforth, the Aβ17–34 peptide refers to the peptide flanked by two glutamates.
To solubilize Aβ, several approaches were taken. One approach was to add two arginines at the N- and C-termini. […] Another approach was to add two glutamic acids at the N- and C-termini.

| effect of terminal residue addition on solubility | solubility in water | solubility in 50 mM acetate buffer at pH 7 (pH 7) | solubility in 50 mM phosphate buffer at pH 7 (pH 7) | Structure (SMILES) | solubility in acetate and phosphate buffers at pH 1, 7 and 10 (acetate and phosphate aqueous buffers, pH 1, 7 and 10, no TFE, HFPI or SDS, compared with peptide without flanking residues) |
| --- | --- | --- | --- | --- | --- |
| – | – | – | – | CC[C@H](C)[C@H](NC(=O)[C@H](C)NC(=O)CNC(=O)[C@H](CCCCN)NC(=O)[C@H](CC(N)=O)NC(=O)[C@H](CO)NC(=O)CNC(=O)[C@@H](NC(=O)[C@H](CC(=O)O)NC(=O)[C@H](CCC(=O)O)NC(=O)[C@H](C)NC(=O)[C@H](Cc1ccccc1)NC(=O)[C@H](Cc1ccccc1)NC(=O)[C@@H](NC(=O)[C@H](CC(C)C)NC(=O)[C@H](CCCNC(=N)N)NC(=O)[C@@H](N)CCCNC(=N)N)C(C)C)C(C)C)C(=O)N[C@H](C(=O)NCC(=O)N[C@@H](CC(C)C)C(=O)N[C@@H](CCCNC(=N)N)C(=O)N[C@@H](CCCNC(=N)N)C(=O)O)[C@@H](C)CC | did not improve solubility |
| improved solubility drastically | not in water | soluble | soluble | CC[C@H](C)[C@H](NC(=O)[C@H](C)NC(=O)CNC(=O)[C@H](CCCCN)NC(=O)[C@H](CC(N)=O)NC(=O)[C@H](CO)NC(=O)CNC(=O)[C@@H](NC(=O)[C@H](CC(=O)O)NC(=O)[C@H](CCC(=O)O)NC(=O)[C@H](C)NC(=O)[C@H](Cc1ccccc1)NC(=O)[C@H](Cc1ccccc1)NC(=O)[C@@H](NC(=O)[C@H](CC(C)C)NC(=O)[C@H](CCC(=O)O)NC(=O)[C@@H](N)CCC(=O)O)C(C)C)C(C)C)C(=O)N[C@H](C(=O)NCC(=O)N[C@@H](CC(C)C)C(=O)N[C@@H](CCC(=O)O)C(=O)N[C@@H](CCC(=O)O)C(=O)O)[C@@H](C)CC [Aβ17–34 peptide] | – |
